Data on 4 compounds can be found in patent EP1013664A1, “Antigenic determinants for drug-specific T lymphocytes from drug-allergic patients” (Max-Planck-Gesellschaft zur Förderung der Wissenschaften …, priority 1998, dated 2000).

One experiment has as its system clone BAM25. In words: Cytokine measurement in culture supernatants of clone BAM25. In kind it is cell-based, human. The following applies: for cytokine response to the derivative alone: without Pen G.
In the next experiment the test system is clone ES5.13. In words: Cytokine measurement in culture supernatants of clone ES5.13. In kind it is cell-based, human. The following applies: for interference on Pen G-induced IL2 secretion: added together with 0.25 mg/ml of Pen G; for cytokine response to the derivative alone: without Pen G. As to the method:
(§1) For cytokine measurement, 10^5 T cells and 5 x 10^4 autologous, irradiated EBV-B cells were mixed in 200 µl of complete RPMI-FCS medium containing appropriate Ag concentration. After overnight incubation, supernatants were collected and tested for the concentration of IL2, IFNγ and IL4. IL2 was quantified on a IL2-dependent CTLL line. IFNγ was measured by a sandwich ELISA as described (12). IL-4 was measured using the Duo-Set ELISA kit provided by Genzyme Diagnostics, Cambridge, MA. Eventually, cells were kept in culture for another 24 h and cellular proliferation was measured by thymidine uptake as described above.
In a first set of experiments we studied the effect of the Pen V and Amp derivatives on the T cell phenotype induced by Pen G on two hapten-specific CD4^+ cell clones.

Experiment [1] concerns tetanus toxoid-specific T cell clone 1ES4. In kind it is cell-based, human.
Experiment [2] concerns PBMC from donors allergic to β-lactams. In words: Proliferative response of primary PBMC cultures to Pen G (3H-thymidine incorporation). In kind it is cell-based, human. The following applies: 5 days incubation. How it is done: (§2) Cells at a concentration of 3 x 10^5/w were stimulated with 3-fold dilutions of Pen G from 3 mg/ml to 0.1 µg/ml. After 5 days incubation at 37°C in 5% CO2, the proliferative response was determined, in one of the plates, as the ^3H-thymidine incorporation after 16 h incubation with […] = 37 kBq ^3H-thymidine (Dupont, Boston, MA). Cells were harvested on GF/A-filters (Dunn Labortechnik GmbH, Asbach, Germany) and the incorporation was measured in an automatic β-counter (Inotech, Asbach, Germany). The second plate was further expanded in IL2-containing medium for 4 days. Cells were then pooled for any given Pen G concentration, washed and rested in the absence of IL2. After another 4 days, cells were harvested and analysed for TCR expression by cell surface staining and IL4/IFNγ production by intracellular staining.
Patients BAM, CAS and ES participating to this study developed allergic reactions after treatment with β-lactam antibiotics and their clinical data are summarized in Table I. At the time of diagnosis they all presented different symptoms after treatment with β-lactams as well as positive LTT in vitro (Table I; ref. 2, 4 and data not shown). […] After 5 days of incubation, the proliferative response was measured in one of the cultures by thymidine incorporation. […] The intensity of the response was dose-dependent, with maximal proliferation at 0.3 mg/ml of Pen G.

For experiment [3] the test system is unchanged. In words: Flow cytometric analysis of intracellular IFNγ and IL4 production in Pen G-stimulated PBMC cultures. The following applies: restimulated with PMA and ionomycin, intracellular staining. In kind it is cell-based, human. As to the method: as §2
Intracellular staining for cytokines was performed following the protocol described by Murphy et al. (12), with few modifications. […] Samples were resuspended in PBS/BSA and analyzed on a FACScan flow cytometer (Becton Dickinson & Co.). […] Results were analyzed using Cellquest software. T cells were detected by standard surface staining using the PE-conjugated anti human TCRαβ antibody (Clone BMA03, Immunotech, Marseille, France). […]
For orientation: A flow cytometer gives signals particle by particle.

Experiment [4] has as its system Pen G-specific T cell clones. In words: Proliferation and IL4/IFNγ secretion of a panel of T cell clones at different Pen G doses. In kind it is cell-based, human. How it is done: T cell clones were generated from Pen G specific T cell lines. Freshly isolated PBMC were stimulated with 1, 0.3, 0.1 mg/ml of Pen G at a density of 2 x 10^5 cells/well in a final volume of 200 µl of complete RPMI containing 5 % HS in 96-well flat bottom culture plates. After 5 days at 37°C and 5 % CO2, 25 U/ml of IL2 was added to the wells. After another 4 days the cultures were pooled, rested for 3 days in the absence of IL2 and subjected to a second round of restimulation using irradiated autologous PBMC as APC and the same dose of Pen G given during the first restimulation. After 3 days the different cultures were again expanded in IL2 containing medium and then cloned by limiting dilution. T cell blasts were seeded at 0.3 cells/well in Terasaki plates (Nunc, Roskilde, Denmark) in the presence of 1 µg/ml PHA and 10^4 irradiated allogeneic PBMC in complete RPMI medium containing 5 % HS and 250 U/ml IL-2. The T cell clones obtained were maintained in culture by periodic stimulation in the presence of irradiated allogeneic PBMC, PHA and IL2.
as §1
In order to evaluate the role of Pen G doses in inducing functional differentiation of established T lymphocytes, a panel of independent Pen G-specific T cell clones was prepared. PBMC from donors two were subjected to two rounds of stimulation, in vitro, with Pen G at concentrations of 1, 0.3 and 0.1 mg/ml in three independent T cell lines. After expansion in IL2-containing medium, each line was independently cloned by limiting dilution. A total of 18 Pen G-specific T cell clones were obtained from donor two and 24 from donor one. The hapten-specific T cell phenotype was induced stimulating each T cell clone with 3-fold dilution of Pen G, from 3 mg/ml to 0.03 mg/ml concentration, in the presence of irradiated autologous EBV-B cells. After 24 h incubation, supernatants were harvested and processed for cytokine measurement, while cells were kept in culture for another 24 h and T cell proliferation was measured by thymidine uptake. We then examined IL4 and IFNγ secretion induced in the presence of the highest and lowest Pen G dose able to trigger cellular proliferation, considering SI values ≥ 2.0 as positive response.

For another experiment, the system named is mouse Th1 cells. The following applies: through specific inhibition of p38 MAP kinases; cited from earlier work.
Setting [5] is: added together with 0.25 mg/ml of Pen G, 24 h.
The mark [6] stands for this setting: high concentration, together with 0.25 mg/ml of Pen G.
Setting [7] is: 0.25 mg/ml of Pen G only, 24 h incubation.

Take `CC1(C)S[C@@H]2[C@H](NC(=O)[C@H](N)c3ccccc3)C(=O)N2[C@H]1C(=O)O` [Amp, Ampicillin]: the “effect on the Pen G-induced cytokine pattern” value with clone BAM25 (setting [5]) was “did not affect”. In addition, the “effect on IFNγ secretion” value with clone BAM25 (setting [6]) is “slight reduction”. Moreover, the “cytokine response to the derivative alone” value (from here on “cytokine response”) with clone BAM25 and in the experiment on clone ES5.13 was “None of them responded” in each case. Besides, the “interference on Pen G-induced IL2 secretion” value in the experiment with clone ES5.13 is recorded as “no interference”. Moreover, the “effect on cytokine secretion” value in experiment [1] was “no effect”.

For `CC1(C)S[C@@H]2[C@H](NC(=O)Cc3ccccc3)C(=O)N2[C@H]1C(=O)O` [Pen G, Penicillin G], in the experiment with clone BAM25 (setting [7]), the “IFNγ (100% value)” value was found to be 6637 pg/mL, the “IL2 (100% value)” value is listed as 80.5 SI of CTLL cells and the “IL4 (100% value)” value was 5788 pg/mL. The cytokine pattern entry with clone BAM25 (Pen G 1 mg/ml, behaved as a Th2 clone) is reported as “secreting IL4 but not IFNγ”. In addition, the “Pen G concentration of maximal proliferation” value in experiment [2] was found to be 0.3 mg/mL. For the same compound, the “cells expanded upon in vitro stimulation” value in experiment [3] was “mainly IL4^+ and IL4^+IFNγ^+ cells are expanded”. In addition, in the experiment on clone ES5.13 (setting [7]), the “IL2 (100% value)” value was found to be 40.3 SI and the “IL4 (100% value)” value turned out to be 5414 pg/mL. Moreover, in experiment [4] (clones from donor one, SI ≥ 2.0 as positive response), the “lowest doses capable of triggering cellular proliferation” value is ≥ 0.3 mg/mL. Also, the “dose at which clones could secrete IL4” value in experiment [4] (clones from donor one, only at the highest dose tested) was 3 mg/mL. Further, in experiment [4] (clones from donor two), the “clones in which lower concentration induced higher level of IFNγ secretion” value is listed as 14 of the 18. Moreover, in experiment [4] (clones from donor two, number of clones), the “clones able to shift from type 0 to type 1 responses” value is recorded as 5. The “lowest dose capable of triggering cellular proliferation” value in experiment [4] (clones from donor two, SI ≥ 2.0 as positive response) came to 0.03 mg/mL. Further, the “clones able to shift their phenotype from type 0 to type 1” value in experiment [4] (clones isolated from donor two) is 35%.

On to `CC1(C)S[C@@H]2[C@H](NC(=O)COc3ccccc3)C(=O)N2[C@H]1C(=O)O` [Pen V, Penicillin V], for which, in the experiment with clone BAM25 (setting [5]), the “concentrations at which IFNγ production is completely abrogated” value was ≥ 0.1 mg/mL, the “effect on IL4 secretion” value is “without affecting IL4 secretion” and the “reduction of the amount of IL2” value is “about 50%”. For the same compound, the “cytokine response” value in the experiment on clone BAM25 is recorded as “None of them responded”. Further, in the experiment on clone ES5.13, the “interference on Pen G-induced IL2 secretion” value is “no interference” and the “cytokine response” value is on record as “None of them responded”. For the same compound, the “effect on IL4 production” value with clone ES5.13 (setting [6]) is on record as “only a marginal reduction”. Besides, in experiment [1], the “concentration at which IFNγ secretion is completely abrogated” value was ≥ 0.1 mg/mL and the “effect on IL2 production” value was “unaffected”.

On to `C[S+]([O-])c1ccc(-c2nc(-c3ccncc3)c(-c3ccc(F)cc3)[nH]2)cc1` (stereo not drawn) [SB203580], for which, in the experiment on mouse Th1 cells, the “effect on IFNγ” value is “selectively induces IFNγ downmodulation”.
